Source: patent publication US20090197269A1, “Translocation and mutant CSF1R Kinase in human leukemia” (CELL SIGNALING TECHNOLOGY, INC., priority 2006, published 2009)

Columns and labels:
CMK = assay: MTT cell proliferation assay, control cells; type: cell-based, human; conditions: control cells (CMK negative control), 48 hour MTT
STAT5 and ERK = assay: Western blot of downstream target phosphorylation in MKPL-1 cells; type: cell-based, human; conditions: Imatinib

Cc1ccc(NC(=O)c2ccc(CN3CCN(C)CC3)cc2)cc1Nc1nccc(-c2cccnc2)n1 [Imatinib]
inhibition of cell growth (CMK): the control cells are not | phosphorylation of downstream target STAT5 and ERK (STAT5 and ERK): inhibited as well
